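Briefly, cells in 96-well plates were exposed to five compound concentrations for 48 h, and endpoints were estimated by linear interpolation. GI50: concentration for 50% inhibition of growth.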 Calls of active or inactive are those of the source. Cut-off read from the data, not from the text of the source: active = GI50 up to about 1.1 µM and inactive = higher.
Tests used:
Test in all cases: NCI anticancer screen, dose series, 48 h
MCF7 = system: MCF7
UACC-257 = system: UACC-257
LOX IMVI = system: LOX IMVI
HCT-15 = system: HCT-15
NCI-H226 = system: NCI-H226
MOLT-4 = system: MOLT-4
Hs-578T = system: Hs-578T
TK-10 = system: TK-10
A549 = system: A549
MDA-MB-435 = system: MDA-MB-435
HCT-116 = system: HCT-116
NCI-H522 = system: NCI-H522
BT-549 = system: BT-549
SF-539 = system: SF-539
SF-268 = system: SF-268
786-0 = system: 786-0
NCI/ADR-RES = system: NCI/ADR-RES
HT-29 = system: HT-29
CAKI-1 = system: CAKI-1
NCI-H23 = system: NCI-H23
SN12C = system: SN12C
OVCAR-3 = system: OVCAR-3
OVCAR-5 = system: OVCAR-5
HOP-62 = system: HOP-62
T47D = system: T47D
SNB-19 = system: SNB-19
UO-31 = system: UO-31
ACHN = system: ACHN
Malme-3M = system: Malme-3M
KM12 = system: KM12
SR = system: SR
MDA-N = system: MDA-N
OVCAR-8 = system: OVCAR-8
SF-295 = system: SF-295
HCC 2998 = system: HCC 2998
CCRF-CEM = system: CCRF-CEM
DU-145 = system: DU-145
NCI-H460 = system: NCI-H460
SK-MEL-28 = system: SK-MEL-28
EKVX = system: EKVX
SK-MEL-2 = system: SK-MEL-2
IGROV-1 = system: IGROV-1
OVCAR-4 = system: OVCAR-4
COLO 205 = system: COLO 205
RPMI-8226 = system: RPMI-8226
HL-60 = system: HL-60
SK-MEL-5 = system: SK-MEL-5
UACC-62 = system: UACC-62
U-251 = system: U-251
M14 = system: M14
K562 = system: K562
MDA-MB-231 = system: MDA-MB-231
SW-620 = system: SW-620
RXF 393 = system: RXF 393
SK-OV-3 = system: SK-OV-3
A498 = system: A498
PC-3 = system: PC-3
SNB-75 = system: SNB-75

Clc1ccc(C2=CCN3CC=C(c4ccc(Cl)cc4)C23)cc1
GI50 (MCF7): 13.9 µM (inactive) | GI50 (UACC-257): 11.8 µM (inactive) | GI50 (LOX IMVI): 8.34 µM (inactive) | GI50 (HCT-15): 11.1 µM | GI50 (NCI-H226): 24 µM (inactive) | GI50 (MOLT-4): 5.28 µM (inactive) | GI50 (Hs-578T): 13.5 µM (inactive) | GI50 (TK-10): 14 µM (inactive) | GI50 (A549): 14.2 µM (inactive) | GI50 (MDA-MB-435): 10.7 µM (inactive) | GI50 (HCT-116): 5.98 µM (inactive) | GI50 (NCI-H522): 10.2 µM (inactive) | GI50 (BT-549): 11.6 µM (inactive) | GI50 (SF-539): 15.9 µM (inactive) | GI50 (SF-268): 7.96 µM (inactive) | GI50 (786-0): 11.6 µM (inactive) | GI50 (NCI/ADR-RES): 12.2 µM (inactive) | GI50 (HT-29): 5.21 µM (inactive) | GI50 (CAKI-1): 14.3 µM (inactive) | GI50 (NCI-H23): 12 µM (inactive) | GI50 (SN12C): 8.71 µM (inactive) | GI50 (OVCAR-3): 12.6 µM (inactive) | GI50 (OVCAR-5): 3.78 µM (inactive) | GI50 (HOP-62): 13.8 µM (inactive) | GI50 (T47D): 12.7 µM (inactive) | GI50 (SNB-19): 14.5 µM (inactive) | GI50 (UO-31): 6.81 µM (inactive) | GI50 (ACHN): 13.7 µM (inactive) | GI50 (Malme-3M): 13.6 µM (inactive) | GI50 (KM12): 6.64 µM (inactive) | GI50 (SR): 6.7 µM (inactive) | GI50 (MDA-N): 10.8 µM (inactive) | GI50 (OVCAR-8): 14.2 µM (inactive) | GI50 (SF-295): 14.6 µM (inactive) | GI50 (HCC 2998): 3.06 µM (inactive) | GI50 (CCRF-CEM): 12.8 µM (inactive) | GI50 (DU-145): 14.7 µM (inactive) | GI50 (NCI-H460): 9.98 µM (inactive) | GI50 (SK-MEL-28): 13.9 µM (inactive) | GI50 (EKVX): 15.3 µM (inactive) | GI50 (SK-MEL-2): 15.5 µM (inactive) | GI50 (IGROV-1): 9.93 µM (inactive) | GI50 (OVCAR-4): 8.26 µM (inactive) | GI50 (COLO 205): 2.7 µM (inactive) | GI50 (RPMI-8226): 4.66 µM (inactive) | GI50 (HL-60): 4.78 µM (inactive) | GI50 (SK-MEL-5): 2.47 µM (inactive) | GI50 (UACC-62): 7.24 µM (inactive) | GI50 (U-251): 11 µM (inactive) | GI50 (M14): 7.28 µM (inactive) | GI50 (K562): 3.17 µM (inactive) | GI50 (MDA-MB-231): 12.4 µM (inactive) | GI50 (SW-620): 13.3 µM (inactive)

O=C(O)C(Cc1ccccc1)Cc1ccccc1
GI50 (MCF7): > 100 µM (inactive) | GI50 (UACC-257): > 100 µM (inactive) | GI50 (LOX IMVI): > 100 µM (inactive) | GI50 (HCT-15): > 100 µM | GI50 (NCI-H226): > 100 µM (inactive) | GI50 (RXF 393): > 100 µM (inactive) | GI50 (MOLT-4): > 100 µM (inactive) | GI50 (Hs-578T): 7.48 µM (inactive) | GI50 (TK-10): > 100 µM (inactive) | GI50 (A549): > 100 µM (inactive) | GI50 (MDA-MB-435): > 100 µM (inactive) | GI50 (HCT-116): > 100 µM (inactive) | GI50 (NCI-H522): > 100 µM (inactive) | GI50 (BT-549): > 100 µM (inactive) | GI50 (SF-539): > 100 µM (inactive) | GI50 (SF-268): > 100 µM (inactive) | GI50 (786-0): > 100 µM (inactive) | GI50 (NCI/ADR-RES): > 100 µM (inactive) | GI50 (HT-29): > 100 µM (inactive) | GI50 (CAKI-1): > 100 µM (inactive) | GI50 (NCI-H23): > 100 µM (inactive) | GI50 (SK-OV-3): > 100 µM (inactive) | GI50 (SN12C): > 100 µM (inactive) | GI50 (OVCAR-3): > 100 µM (inactive) | GI50 (OVCAR-5): > 100 µM (inactive) | GI50 (HOP-62): > 100 µM (inactive) | GI50 (T47D): > 100 µM (inactive) | GI50 (SNB-19): > 100 µM (inactive) | GI50 (UO-31): > 100 µM (inactive) | GI50 (A498): > 100 µM (inactive) | GI50 (ACHN): > 100 µM (inactive) | GI50 (Malme-3M): > 100 µM (inactive) | GI50 (KM12): > 100 µM (inactive) | GI50 (MDA-N): > 100 µM (inactive) | GI50 (OVCAR-8): > 100 µM (inactive) | GI50 (SF-295): > 100 µM (inactive) | GI50 (CCRF-CEM): > 100 µM (inactive) | GI50 (PC-3): > 100 µM (inactive) | GI50 (DU-145): > 100 µM (inactive) | GI50 (NCI-H460): > 100 µM (inactive) | GI50 (SK-MEL-28): > 100 µM (inactive) | GI50 (EKVX): > 100 µM (inactive) | GI50 (SK-MEL-2): > 100 µM (inactive) | GI50 (SNB-75): > 100 µM (inactive) | GI50 (IGROV-1): > 100 µM (inactive) | GI50 (OVCAR-4): > 100 µM (inactive) | GI50 (COLO 205): > 100 µM (inactive) | GI50 (RPMI-8226): > 100 µM (inactive) | GI50 (HL-60): > 100 µM (inactive) | GI50 (SK-MEL-5): > 100 µM (inactive) | GI50 (UACC-62): > 100 µM (inactive) | GI50 (U-251): > 100 µM (inactive) | GI50 (M14): > 100 µM (inactive) | GI50 (K562): > 100 µM (inactive) | GI50 (MDA-MB-231): > 100 µM (inactive) | GI50 (SW-620): > 100 µM (inactive)

From ChEMBL document CHEMBL1201862, “PubChem BioAssay data set” (2004)
